Assay [1] has as its target T1, human 20S proteasome (hs20S), chymotrypsin-like β5-subunits (Homo sapiens, UniProt P20618+P28074).
T1 construct: purchased R&D
Description: In vitro 20S peptidase inhibition kinetics, chymotrypsin-like activity (Suc-LLVY-AMC). Conditions: second-order rate constant, Suc-LLVY-AMC substrate, 37° C. The format is biochemical. The protocol:
In vitro 20S peptidase inhibition assays were recorded in a 384-well plate at a SpectraMax M5 (Molecular devises) plate-reader. Therefore, 5 nM human 20S (R&D) was incubated in buffer R (50 mM HEPES-KOH, pH 7.5, 0.5 mM EDTA) with 100 μM of the fluorogenic peptide substrates Suc-LLVY-AMC or Boc-LRR-AMC. Reactions were started by adding various amounts of inhibitors (5 nM to 500 μM) to a final volume of 30 μL and peptide hydrolysis was continuously monitored for 90 min by changes in fluorescence (excitation 380 nm; emission 440 nm) at 37° C. The kobs values were determined by fitting the raw data to equation (1). The slopes of the plots of kobsversus I gave an apparent value of kobs/I, also referred to as kinact/Ki for an irreversible inhibitor, which was then corrected by equation (2) to compensate for the effect of substrate competition, where app is the apparent value at different inhibitor concentrations.
Using purified human 20S proteasome (hs20S) and a fluorogenic substrate (Suc-LLVY-AMC), in vitro assays were performed to systematically assess proteasome inhibition by the syringolin analogues. The choice of substrate was based on the fact that it is preferentially acted upon by the chymotrypsin-like β5-subunits of the proteasome due to the aromatic tyrosine residue at the scissile bond (i.e., P1 position).
From measurements of the rates of hydrolysis of the fluorogenic substrate by the proteasome in the presence of increasing concentrations of each inhibitor, second-order rate constants kin/Ki (M^−1 s^−1) were determined (Table 1), which reflect both the affinity of the non-covalent binding (Ki) and the rate of the chemical reaction with the enzyme (kin). All of the syringolin analogues were capable in inhibiting the chymotrypsin-like activity of hs20S. Without wishing to be limited by any theory, consistent with the design predictions, the most significant contributor to the apparent second-order rate constants of the compounds was their binding affinity (Ki) rather than the rates of inhibition.
In vitro 20S peptidase inhibition assays were recorded in a 384-well plate at a SpectraMax M5 (Molecular Devices) plate-reader. Therefore, 5 nM human 20S (R&D) was incubated in buffer R (50 mM HEPEs-KOH, pH 7.5, 0.5 mM EDTA) with 100 μM of the fluorogenic peptide substrate Suc-LLVY-AMC. Reactions were started by adding various amounts of inhibitors 5 nM to 500 μM) to a final volume of 30 μL and peptide hydrolysis was continuously monitored for 90 minutes by changes in fluorescence (excitation 380 nm; emission 440 nm) at 37 degrees Celsius. The kobs values were determined by fitting the raw data to equation 1. The slopes of the plots of kobs versus I gave an apparent value of kob/I, also referred to as kinact/Ki for an irreversible inhibitor, which was then corrected by equation 2 to compensate for the effect of substrate competition, where app is the apparent value at different inhibitor concentrations.

The test system of assay [2] is 60 different cancer cell lines. Description: NCI single-dose growth assay with 60 cancer cell lines. The format is cell-based. Conditions: 10 μM, average over the panel of cell lines. The protocol:
FIG. 6 illustrates the in vitro inhibition results for compound 1, while FIG. 7 illustrates the in vitro inhibition results for compound 13. FIG. 8 illustrates the in vitro inhibition results for compound 14, while FIG. 9 illustrates the in vitro inhibition results for compound 15. FIG. 10 illustrates the in vitro inhibition results for compound 16. […] Specifically, cell lines incubated in media with 10 μM of compound 15 grew at an average of 30% of those incubated in media without compound. The mean growth of the cell lines in media with the same concentration of compound 16 was approximately 71% of those in negative control experiments.

A further assay concerns HL-60. Kind of assay: NCI dose-dependent growth inhibition, HL-60. It counts as cell-based. Conditions: Homo sapiens; HL-60, 48-h exposure. The text has this: (§1) The three compounds were particularly active against leukemia cell lines. […] Without wishing to be limited by any theory, such differences in biochemical and biological patterns may be explained by differences in the cell permeabilities or stabilities of the two compounds. […] Data provided by the National Cancer Institute (NCI): […] The optical density of the test well after a 48-h period of exposure to test drug is T, the optical density at time zero is T0, and the control optical density is C. The “50” is called the […] parameter that can have values from +100 to -100.

Another assay relates to K-562. Description: NCI dose-dependent growth inhibition, K-562. The format is cell-based. Conditions: Homo sapiens, K562; K-562, 48-h exposure.
Text: as §1

The test system of the next assay is MOLT-4. Kind of assay: NCI dose-dependent growth inhibition, MOLT-4. It counts as cell-based. Conditions: Homo sapiens; MOLT-4, 48-h exposure.
Text: as §1

Another assay deals with RPMI-8226. Description: NCI dose-dependent growth inhibition, RPMI-8226. Conditions: Homo sapiens; RPMI-8226, 48-h exposure. It counts as cell-based.
Text: as §1

In another assay the test system is SR. Kind of assay: NCI dose-dependent growth inhibition, SR. The format is cell-based. Conditions: Homo sapiens, 48-h exposure.
Text: as §1

In another assay the test system is leukemia cell lines. Kind of assay: NCI dose-dependent growth inhibition, leukemia cell lines overall. It counts as cell-based. Conditions: as much as, fold more potent.
Text: as §1

Some results are limits rather than exact numbers.

Broadly, the GI50 is the concentration at which growth is held to half of that of the control. A low value points to greater sensitivity of the cells. As to `COC(=O)[C@@H](NC(=O)N[C@@H](Cc1ccccc1)C(=O)N[C@H]1CCCCNC(=O)/C=C/[C@H](Cc2ccccc2)NC1=O)C(C)C` [Compound 15, (S)-methyl 2-(3-((S)-1-(((5S,8S,E)-5-benzyl-2,7-dioxo-1,6-diazacyclododec-3-en-8-yl)amino)-1-oxo-3-phenylpropan-2-yl)ureido)-3-methylbutanoate], in assay [1], the “hs20S kin/Ki” value is given as 4,199 M^−1s^−1. Moreover, in assay [2], the “mean growth of cell lines relative to media without compound” value was determined as 30%. Also, the GI50 worked out at 4.34 µM in the assay with HL-60; 14.6 µM in the assay on K-562; 3.32 µM in the assay on MOLT-4; 2.72 µM with RPMI-8226; 2.78 µM with SR.
Regarding `COC(=O)[C@@H](NC(=O)N[C@H](C(=O)N[C@H]1CCCCNC(=O)/C=C/[C@H](C(C)C)NC1=O)C(C)C)C(C)C` [Compound 1, Syringolin B Methyl Ester, reference compound], the GI50 in the assay on HL-60 is 5.41 µM; with K-562 it was 6.12 µM; in the assay with MOLT-4, 4.73 µM; with RPMI-8226, 3.97 µM; in the assay with SR, 5.13 µM.
For `COC(=O)[C@@H](NC(=O)N[C@@H](Cc1ccccc1)C(=O)N[C@H]1CCCCNC(=O)/C=C/[C@H](Cc2c[nH]c3ccccc23)NC1=O)C(C)C` [Compound 16], the “mean growth of cell lines relative to media without compound” value in assay [2] is “approximately 71%”. Moreover, the GI50 in the assay on HL-60 stood at 1.29 µM; in the assay with K-562, 2.94 µM; in the assay with MOLT-4 it was 0.599 µM; in the assay on RPMI-8226 it was 0.343 µM; in the assay with SR it was 0.453 µM. In addition, in the assay with leukemia cell lines, the “potency relative to syringolin B methyl ester (1) against the leukemia cell lines” value is at most 11.5 fold.

The values are drawn from patent publication US10597368B2, “Syringolin analogues and methods of making and using same” (BROWN UNIVERSITY, priority 2015, dated 2020).
